These results are taken from patent US8481678B2, “Peptide-based tooth whitening reagents” (E I du Pont de Nemours and Company, priority 2009, dated 2013).

The conditions of test [1]: 20 μM biotinylated peptide; mean of at least three replicates; no-peptide control 0.066. From the text:
Enzyme-linked immunosorbent assay (ELISA) was used to evaluate the cellulose acetate coated iron oxide particle-binding affinity of the biopanning selected peptide candidates (Example 6; biotinylated peptides phage ID: CA-1 to CA-4). The identified peptides were synthesized using a standard solid-phase synthesis method (see U.S. patent application Ser. No. 11/251/715). All peptides were modified to contain a biotinylated lysine residue at the C-terminus of the amino acid binding sequence for detection purposes (Table 6).
The cellulose acetate-coated iron oxide particles were dispersed in water at 2.5 mg per mL. […] The particle dispersion (1 mL each) was then centrifuged for 2 min at 5000 rpm, the aqueous was removed by aspirating it out of each tube. The tubes were incubated in SUPERBLOCK® blocking buffer (Pierce Chemical Company, Rockford, Ill.; Prod. #37535) for 1 hour at room temperature (˜22° C.), followed by 3 washes with TBST (TBS in 0.05% TWEEN® 20). Then tubes were then rinsed 3 times with wash buffer consisting of TBST-0.05% using the same centrifugation and aspiration methods. Peptide binding buffer consisting of 20 μM biotinylated peptides in TBST and 1 mg/mL BSA was added to the particles and incubated for 1 hour at room temperature (˜22° C.), followed by 6 TBST washes. Then, the streptavidin-alkaline phosphatase (AP) conjugate (Pierce Chemical Co., Rockford, Ill.) was added to each well at standard concentration and incubated for 1 hour at room temperature, followed by 6 times of washes with TBST. All particles were then transferred to new tubes and then the color development and the absorbance measurements were performed following the manufacturer's standard protocols.

A short description of test [2]: Phage ELISA, polished enamel-binding assay. On the set-up: species or system bovine. As to conditions: phage ELISA on polished enamel, over 10^10 pfu phage; no-phage control 0.112. The procedure: (§1) A total of 11 selected phage candidates (Example 3) were used in a phage ELISA experiment. Purified phage lysates were used for binding to the enamel blocks using an anti-M13 phage antibody conjugated to horseradish-peroxidase, followed by the addition of chromogenic agent TMB, obtained from Pierce Biotechnology (Rockford, Ill.). The plates were read at A450 nm.
(§2) For each phage candidate to be tested, the polished and unpolished enamel blocks were incubated for 1 h at room temperature with 200 μL of blocking buffer, consisting of 2% non-fat dry milk (Schleicher & Schuell, Inc.) in TBS. […] The tube was rinsed 6 times with wash buffer consisting of TBST-0.05%. The wells were filled with 200 μL of TBST-0.5% containing 1 mg/mL BSA and then 10 μL (over 10^10 pfu) of purified phage stock was added. The samples were incubated at room temperature for 60 min with slow shaking. The non-binding phage was removed by washing 6 times with TBST-0.5%. […] The conjugate solution was removed and was washed 6 times with TBST-0.5%. […] “BoEn P” means bovine polished enamel and BoEn means bovine enamel.
In general terms: In an ELISA, binding on a coated surface is turned into a signal by an enzyme label.

The nature of test [3]: Phage ELISA, tooth enamel-binding assay (unpolished enamel blocks). The note with it: phage ELISA on unpolished enamel, over 10^10 pfu phage; no-phage control 0.193. Also noted: species or system bovine. How it is done: as §1, §2
Test [4] has as its system pellicle-coated enamel substrates. As to conditions: 20 μM synthetic biotinylated peptide, 30 min at 37° C.; normalized to DenP03; three replicates; no peptide −0.001. How it is done: A total of 20 synthetic peptides were manufactured using sequences obtained from Table 14. Peptides were obtained from Synbiosci (Livermore, Calif.) and included an additional SSRP sequence (SEQ ID NO: 151) at the N-terminus and biotin labeled lysine at the C-terminus.
Enamel substrates were cut to approx. 7 mm squares and mounted on wax mounting for incubation in the mouth for 30 min to form a pellicle coated surface. The pellicle-coated enamel substrates were removed from the wax backing and placed in well plates with the pellicle surface exposed as in Example 1. Each pellicle-coated substrate was incubated for 1 h at room temperature (˜22° C.) with 1 mL of blocking buffer, consisting of 1 mg/mL BSA in PBST (Pierce BupH™ #28372 with 0.1% TWEEN® 20). The blocking buffer was removed by aspirating the liquid out of each well. The tube was rinsed 2 times with wash buffer consisting of PBST. The wells were filled with 500 μL of 20 μM peptide solution which was prepared by diluting in blocking buffer. The samples were incubated for 30 min with slow shaking at 37° C. The non-binding peptide was removed by washing 6 times with PBST. Then, 500 μL of horseradish peroxidase/streptavidin conjugate (Pierce #22127), diluted 1:2000 in PBST, was added and incubated for 1 h at room temperature. The conjugate solution was removed and was washed 4 times with PBST.
Each enamel substrate was removed from the well and washed again in a 15-mL test tube with 10 mL of PBST. Each enamel substrate was then mounted in a clean well plate with only the enamel surface exposed. A 1:1 solution of TMB substrate and H2O2 (200 μL), obtained from Pierce Biotechnology (Rockford, Ill.) was added to each well and the color was allowed to develop for between 10 to 20 min, typically for 15 min, at room temperature (˜22° C.). Then, 100 μL of solution from each well was transferred to a 96-well reading plate containing stop solution (100 μL of 2 M H2SO4) in each well. The A450 was measured using a microplate spectrophotometer (Molecular Devices, Sunnyvale, Calif.). […] Each sequence was tested with three replicate enamel coated pellicle substrates.

Test [5] shares this test system. The note with it: range of peptide concentrations, 2 h at 37° C., 4-MUP fluorescence; calculated from Scatchard plots. From the text:
The pellicle-coated enamel substrates were removed from the wax backing and placed in well plates with the pellicle surface exposed as in Example 1. […] The blocking buffer was removed by aspirating the liquid out of each well. The tube was rinsed 2 times with wash buffer consisting of PBST. […] The non-binding peptide was removed by washing 6 times with PBST. […] The conjugate solution was removed and was washed 4 times with PBST.
Each enamel substrate was removed from the well and washed again in a 15-mL test tube with 10 mL of PBST. Each enamel substrate was then mounted in a clean well plate with only the enamel surface exposed.

Where no end group is shown, it is not given here. The star is where a group is joined. Biotin = O=C1N[C@H]2[C@H](CS[C@H]2CCCCC(=O)*)N1

Regarding DTIHPNKMKSPSSPL-K-biotin-NH2 [CA-2], the “O.D. at 405 nm” value in test [1] worked out at 0.207.
“NTCQPTKNATPCSA (Tooth-binding peptide) [BoEn P6]”: in test [2], the “O.D. at 450 nm” value is given as 0.83.
As to “NTCATSPNSYTCSN (Tooth-binding peptide) [BoEn 6]”, the “O.D. at 450 nm” value in test [3] stood at 2.38.
“VGTMKQHPTTTQPPRVSATN (Tooth-binding peptide) [BoEn 9]”: the “O.D. at 450 nm” value in test [3] was 0.568.
Consider “LNDQRKPGPPTMPTHSPAVG (Tooth-binding peptide) [BoEn 5]”, for which the “O.D. at 450 nm” value in test [3] is 0.944.
On to “ATTPPSGKAAAHSAARQKGN-K-biotin-NH2 [CA-1]”, for which the “O.D. at 405 nm” value in test [1] is on record as 0.269.
Take “YSETPNDQKPNPHYKVSGTK (Tooth-binding peptide) [BoEn 10]”: the “O.D. at 450 nm” value in test [3] came to 3.942.
Consider SDETGPQIPHRRPTW-K-biotin-NH2 [CA-4], for which, in test [1], the “O.D. at 405 nm” value is given as 0.141.
Take “SDCTAGLVPPLCAT (Tooth-binding peptide) [BoEn 7]”: in test [3], the “O.D. at 450 nm” value was 0.892.
For “EPPTRTRVNNHTVTVQAQQH (Tooth-binding peptide) [BoEn P2]”, the “O.D. at 450 nm” value in test [2] worked out at 0.641.
Consider “THNMSHFPPSGHPKRTAT (Tooth-binding peptide) [BoEn P8]”, for which the “O.D. at 450 nm” value in test [2] worked out at 2.02.
Consider “SSRPHKNENIMQYNVNDRWHITPAK(Biotin) [DenP32-A]”, for which the “O.D. at 450 nm (normalized)” value in test [4] amounted to 1.135. Besides, the “MB50” value in test [5] was 25 µM.
As for “NGNNHTDIPNRSSYTGGSFA-K-biotin-NH2 [CA-3]”, in test [1], the “O.D. at 405 nm” value was found to be 0.279.
As to “AANPHTEWDRDAFQLAMPPK (Tooth-binding peptide) [BoEn 1]”, the “O.D. at 450 nm” value in test [3] was 1.402.
As for “SSRPTTYHYKNIYQESYQQRNPAVK(Biotin) [DenP3-A]”, the “O.D. at 450 nm (normalized)” value in test [4] is listed as 1.000. Moreover, in test [5], the “MB50” value is 28 µM.
As to “NFCETQLDLSVCTV (Tooth-binding peptide) [BoEn P5]”, the “O.D. at 450 nm” value in test [2] was 0.797.
In the case of “GYCLRGDEPAVCSG (Tooth-binding peptide) [BoEn P3]”, the “O.D. at 450 nm” value in test [2] was 0.665.
